Molecular target: T1, Renilla luciferase 8 (RLuc8) (Renilla reniformis, UniProt P27652, A55T/C124A/S130A/K136R/A143M/M185V/M253L/S287L)
T1 construct: RLuc8 in pcDNA3.1(+), stably expressed in MDA-MB231 cells
T1 sequence (P27652 1-311 A55T/C124A/S130A/K136R/A143M/M185V/M253L/S287L): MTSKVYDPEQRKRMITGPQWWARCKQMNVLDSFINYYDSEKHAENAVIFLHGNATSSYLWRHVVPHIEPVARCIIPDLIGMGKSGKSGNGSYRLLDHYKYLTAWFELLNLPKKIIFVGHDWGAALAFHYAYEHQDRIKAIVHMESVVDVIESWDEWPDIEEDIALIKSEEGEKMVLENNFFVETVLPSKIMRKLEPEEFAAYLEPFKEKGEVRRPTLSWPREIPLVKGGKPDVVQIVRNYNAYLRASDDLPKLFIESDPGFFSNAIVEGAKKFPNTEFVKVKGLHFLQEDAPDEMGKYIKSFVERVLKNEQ
Experiment: bioluminescence imaging of MDA-MB231 cells expressing the luciferase
Assay type: cell-based
Details: stable cells

Oc1ccc(Cc2nc3c(Cc4ccccc4)nc(-c4ccc(O)cc4)cn3c2O)cc1 [nCTZ]
bioluminescence imaging of MDA-MB231 cells expressing the luciferase: exhibited the brightest signal when reacted with nCTZ

From paper PMC10098686, “Bright Molecular Strain Probe Templates for Reporting Protein–Protein Interactions” (Sensors (Basel, Switzerland), 2023)
